Earlier results as cited in patent US20130225581A1, “NITROGEN-CONTAINING AROMATIC HETEROCYCLIC DERIVATIVE” (KYOWA HAKKO KIRIN CO., LTD, priority 2010, published 2013).

Tested on: human gastric cancer tumor models

Row | SMILES | antitumor activities
1 | COc1cc2c(Oc3ccc4[nH]c(C)cc4c3F)ncnc2cc1OCCCN1CCCC1 [AZD2171] | show antitumor activities
2 | COc1cc2nccc(Oc3ccc(NC(=O)NC4CC4)c(Cl)c3)c2cc1C(N)=O [4-[3-chloro-4-(cyclopropylaminocarbonyl)aminophenoxy]-7-methoxy-6-quinolinecarboxamide] | show antitumor activities
